In article PMC11266932, “Enhanced absorption of prenylated cinnamic acid derivatives from Brazilian green propolis by turmeric in humans and rats” (Food Science & Nutrition, 2024):
Like-named read-outs stand apart in the source and are kept apart here.

Tests used:
[1] = Clinical trial: plasma concentration and AUC of cinnamic acid derivatives after ingestion of BGP alone or BGP plus herbal extract mixture; type: in vivo; settings: humans, BGP and herbal extracts co-administered; for AUC: plasma 0–24 h, after enzymatic deconjugation, mean ± SD, n = 6; for fold increase of AUC versus BGP administered alone: 0–24 h
Method: Six volunteers (three males and three females) completely understood the study protocol and consented to participate in the research. The following exclusion criteria were used for shortlisting participants: past or present medical history (asthma, significant allergies, heart, liver, kidney, and urinary tract disease); prescribed medication; pregnancy; smoking (>20 cigarettes/day); alcohol consumption (>500 mL/day of beer); use of dietary supplements and healthy foods; and participation in other clinical trials. The participants were instructed to refrain from consuming propolis and propolis‐containing foods and beverages during the study period and 1 week prior to the start of the study. After a 12‐h fast, the participants were given a test food comprising the encapsulated BGP powder or a mixture of the BGP powder and herbal extracts in two experimental periods separated by 1 week. […] The collected samples were centrifuged at 1500 g for 3 min at 23 ± 2°C to separate the plasma, which was subsequently preserved at −80°C until further sample preparation.
(§1) Briefly, 50 μL of plasma was treated with a sulfatase/β‐glucuronidase solution (sulfatase 15 units/sample) in 100 mM sodium acetate and 5 mM ascorbate at 37°C for 1 h. Following the incubation, 850 μL of methanol was added to the samples to stop the deconjugation reaction, after which centrifugation was performed at 2000 g for 10 min at 23 ± 2°C. The supernatant was evaporated under nitrogen gas and then reconstituted in a fixed volume of methanol. The samples were filtered through a 0.22 μm PTFE membrane and then analyzed by LC–MS/MS.
(§2) Briefly, 5 μL of the sample was injected into a reversed‐phase column (Acquity UPLC BEH C18, 2.1 × 100 mm, ID. 1.7 μm; Waters, Milford, MA, USA) held at 30°C. The elution was performed using solvent A (0.1% formic acid) and solvent B (acetonitrile) at a flow rate of 0.3 mL/min. The gradient profiles were as follows: 5% B (0–2 min), 5–95% B (2–22 min), 95% B (22–25 min), and 5% B (25–30 min). Tandem mass spectrometry (MS/MS) was conducted using an ion trap mass spectrometer with a heated electrospray ion source (HESI) in both positive and negative ionization modes (scan range m/z 70–1000). […] External standard curves for cinnamic acid derivatives were generated using eight concentrations of authentic standard solutions (1, 5, 10, 50, 100, 250, 500, and 1000 ng/mL).
(§3) Quantification of cinnamic acid derivatives in the plasma was performed using the Trace Finder software version 4.1 (Thermo Scientific). The plasma concentration versus time data for the analytes obtained from each human and rat were entered into a Microsoft Excel spreadsheet. The area under the plasma concentration–time curve (AUC) was calculated using the linear trapezoidal rule, extending to the last sampling point.

[2] = Animal study: plasma concentration and AUC of cinnamic acid derivatives after intragastric BGP with or without each herbal extract; type: in vivo, Wistar/ST rats; settings: rats
Method: Wistar/ST rats (male, 7 weeks old) were purchased from Japan SLC (Shizuoka, Japan). […] The rats were quarantined and acclimatized under the above conditions for 1 week and divided into six groups (eight rats/group) according to their average body weight (240–260 g). Each test sample listed in Table 1 was dissolved in 10% propylene glycol (1 mL per rat) and administered intragastrically to the rats after an overnight fasting period with free access to water. […] The collected samples were centrifuged at 1500 g for 10 min at 4°C to separate the plasma and preserved at −80°C until further sample preparation.
as §1, §2, §3

[3] = BGP co-administered with turmeric extract

Row | AUC ([1]; both sexes, human, oral, read-out: AUC) | change of AUC versus BGP alone (in words) ([2]; BGP co-administered with gotu kola extract) | change of AUC versus BGP alone (in words) [2, 3] | Compound | fold increase of AUC versus BGP administered alone [1] | change of plasma concentration versus BGP alone (in words) ([2]; BGP + turmeric extract, at 30 min and 3 h) | AUC [1] | fold increase of plasma concentration versus BGP alone ([2]; BGP + turmeric extract, 30 min after administration) | fold increase of plasma concentration versus BGP alone ([2]; BGP + turmeric extract, 3 h after administration) | fold increase of plasma concentration versus BGP alone ([2]; BGP + turmeric extract, 6 h after administration) | fold increase of AUC versus BGP administered alone [2, 3]
1 | 34.5 ± 12.2 ng·h/mL | tended to increase | tended to increase | CC(C)=CCc1cc(C=CC(=O)O)cc(O)c1O [3,4‐dihydroxy‐5‐prenylcinnamic acid] | 1.8 fold | significant increases or increasing trends |  |  |  |  | 
2 |  |  |  | CC(C)=CCc1cc(/C=C/C(=O)O)cc(C/C=C(\C)CO)c1O [capillartemisin A] | 1.6 fold |  | 57.0 ± 16.5 ng·h/mL | 2.2 fold | 1.7 fold | 3.0 fold | 1.7 fold
